The results in this text go back to patent US7772267B2, “Bicyclic modulators of androgen receptor function” (Bristol-Myers Squibb Company, priority 2002, dated 2010).

For series [1], the target named is T1, AR (Rattus norvegicus, UniProt P15207).
T1 sequence (P15207 1-902): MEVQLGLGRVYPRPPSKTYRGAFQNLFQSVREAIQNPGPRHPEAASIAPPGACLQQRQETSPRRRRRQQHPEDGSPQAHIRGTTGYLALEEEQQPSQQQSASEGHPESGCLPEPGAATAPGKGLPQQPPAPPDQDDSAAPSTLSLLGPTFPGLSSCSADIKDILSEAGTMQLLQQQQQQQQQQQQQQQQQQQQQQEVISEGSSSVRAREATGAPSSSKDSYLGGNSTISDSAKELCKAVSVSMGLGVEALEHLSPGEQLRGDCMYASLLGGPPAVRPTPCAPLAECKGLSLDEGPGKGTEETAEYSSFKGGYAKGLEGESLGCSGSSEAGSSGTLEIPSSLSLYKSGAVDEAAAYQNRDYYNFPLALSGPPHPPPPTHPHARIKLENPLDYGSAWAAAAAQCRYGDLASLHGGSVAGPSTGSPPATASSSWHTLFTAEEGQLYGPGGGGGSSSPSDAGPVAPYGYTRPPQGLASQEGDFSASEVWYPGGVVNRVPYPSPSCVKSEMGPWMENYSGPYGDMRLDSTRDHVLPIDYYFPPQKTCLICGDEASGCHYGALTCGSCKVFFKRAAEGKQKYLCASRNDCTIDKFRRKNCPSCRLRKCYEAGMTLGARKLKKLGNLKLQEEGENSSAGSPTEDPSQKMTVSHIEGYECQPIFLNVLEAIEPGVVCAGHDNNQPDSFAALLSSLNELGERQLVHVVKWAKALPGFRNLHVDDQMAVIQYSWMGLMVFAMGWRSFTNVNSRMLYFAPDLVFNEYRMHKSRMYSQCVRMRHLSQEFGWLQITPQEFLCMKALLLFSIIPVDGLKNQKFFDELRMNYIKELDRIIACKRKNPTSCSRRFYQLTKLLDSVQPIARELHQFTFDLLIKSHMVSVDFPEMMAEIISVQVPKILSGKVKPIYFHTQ
The source says:
The activity of compounds of the present invention as AR agonists was investigated in an immature male rat model, a recognized test of anabolic effects in muscle and sustaining effects in sex organs for a given compound, as described in L. G. Hershberger et al., Proc. Soc. […] Biol. Med., 83, 175 (1953); B. L. Beyler et al, “Methods for evaluating anabolic and catabolic agents in laboratory animals”, J. Amer. Med. Women's Ass., 23, 708 (1968); H. Fukuda et al., “Investigations of the levator ani muscle as an anabolic steroid assay”, Nago Dai. Yak. Ken. Nem. 14, 84 (1966) the disclosures of which are herein incorporated by reference.
The basis of this assay lies in the well-defined action of androgenic agents on the maintenance and growth of muscle tissues and sexual accessory organs in animals and man. […] J. Anat. […] I. Quantitative data” Boll.-Soc. Ital. Biol. Sper. […] II. Electron-microscopic observations” Boll.-Soc. Ital. Biol. Sper. 42, 1600 (1966); A. Boris et al., Steroids 15, 61 (1970). As described above, the effects of androgens on maintenance of male sexual accessory organs, such as the prostate and seminal vesicles, is well described. Castration results in rapid involution and atrophy of the prostate and seminal vesicles. This effect can be reversed by exogenous addition of androgens. […]

For series [2], the system named is endogenous glucocorticoid receptor (A549 cells). Nature of the series: In vitro assay to measure GR-induced AP-1 transrepression (luciferase reporter in A549 cells). As to conditions: at a concentration of ≦10 µM; typical value for the positive control. The series is classed as cell-based. How it is done:
The AP-1 assay is a cell-based luciferase reporter assay. A549 cells, which contain endogenous glucocorticoid receptor, were stably transfected with an AP-1 DNA binding site attached to the luciferase gene. Cells are then grown in RPMI+10% fetal calf serum (charcoal-treated)+Penicillin/Streptomycin with 0.5 mg/mL geneticin. Cells are plated the day before the assay at approximately 40000 cells/well. On assay day, the media is removed by aspiration and 20 μL assay buffer (RPMI without phenol red+10% FCS (charcoal-treated)+Pen/Strep) is added to each well. At this point either 20 μL assay buffer (control experiments), the compounds of the present invention (“test compounds”) (dissolved in DMSO and added at varying concentrations) or dexamethasome (100 nM in DMSO, positive control) are added to each well. The plates are then pre-incubated for 15 min at 37° C., followed by stimulation of the cells with 10 ng/mL PMA. The plates are then incubated for 7 h at 37° C. after which 40 μL luciferase substrate reagent is added to each well. Activity is measured by analysis in a luminometer as compared to control experiments treated with buffer or dexamethasome. […] The control, dexamethasone, at a concentration of ≦10 µM typically suppresses activity by 65%.
(In general: A reporter such as luciferase makes a cellular process visible.)

Broadly, the melting point is the temperature, or range, at which the solid turns liquid. The compound `Cc1c(N2C[C@@H]3[C@@H](O)CCN3C2=O)ccc(C#N)c1Cl` had a melting point of 148 to 149 °C. With `CCC(=O)O[C@H]1CC[C@H]2[C@@H]3CCC4=CC(=O)CC[C@]4(C)[C@H]3CC[C@]12C` [TP, Testosterone Propionate], the “EC50 (increase in organ weight)” value in series [1] (castrated rats, organ weight increase) was roughly 0.03 mg. The “potency relative to free T” value in series [1] (higher potency than free T) is 10-30 fold. In the case of `C[C@@H]1C[C@H]2[C@@H]3CCC4=CC(=O)C=C[C@]4(C)[C@@]3(F)[C@@H](O)C[C@]2(C)[C@@]1(O)C(=O)CO` [dexamethasone], the “suppression of activity (% inhibition of the reporter system vs buffer control with 10 ng/mL PMA alone)” value in series [2] is recorded as 65%.
